According to US12522614B2, “Topical phosphoinositide 3-kinase inhibitors” (VENTHERA, INC., priority 2019, dated 2026):

What was measured:
Assay type in all cases: in vitro ADME
[1] = In vitro skin permeation study, mouse skin vs. human skin; settings: Example 8 gel
Protocol: The gel formulation of Example 8 was used to determine the skin permeation through human and mouse skin. It is important to understand the permeation difference between the two types of skin, because mouse skin is used extensively in toxicology studies as well as in early in vivo studies. The skin permeation study was performed in accordance with the method as described in Example 9.

[2] = Human skin permeation from liquid reservoir transdermal patch over 7 days; settings: liquid reservoir patch with Table 11 gel
Protocol: Liquid reservoir transdermal patches of FIG. 6 were prepared and used for the study of delivery of Compound 1.002. The transdermal patches were used to deliver Compound 1.002 in vitro through human skin for 7 days from a single patch application. The following gel formulation having composition as shown in Table 11 was prepared according to Example 8 and incorporated into the reservoir patch system.
Patches using the gel formulation having compositions of Table 11 were prepared in accordance with the process shown in FIG. 7. The patch was 1.8 cm^2 in size containing 0.3 mL of the gel formulation. The backing layer of the patch was Scotchpak® 9723, which is a laminate of polyester and polyethylene commonly used in transdermal patches. The controlling membrane was SOLUPOR® 10P05A, which is a highly porous (up to 90% porous) Ultra High Molecular Weight Polyethylene membrane with controlled pore size. The pressure sensitive adhesive in contact with the human skin was […], which is a non-crosslinked acrylate copolymer with no functional groups.
Compound 1.002 was confirmed to metabolize to MTPP by estarases as it permeates through the human skin.

[3] = In vitro human skin permeation study of topical gel formulations (Franz diffusion cells)
[4] = Study-1, Example 8 gel, human skin, Donor 1, 2 h
[5] = Study-1, Example 8 gel, human skin, Donor 1, 4 h
[6] = Study-1, Example 8 gel, human skin, Donor 1, 8 h
[7] = Study-1, Example 8 gel, human skin, Donor 1, 24 h
[8] = Study-1, Example 8 gel, human skin, Donor 1, 48 h
[9] = Study-1, Example 8 gel, human skin, Donor 2, 2 h
[10] = Study-1, Example 8 gel, human skin, Donor 2, 8 h
[11] = Study-1, Example 8 gel, human skin, Donor 2, 24 h
[12] = Study-1, Example 8 gel, human skin, Donor 2, 48 h
[13] = Study-1, Example 8 gel, human skin, Donor 3, 4 h
[14] = Study-1, Example 8 gel, human skin, Donor 3, 8 h
[15] = Study-1, Example 8 gel, human skin, Donor 3, 24 h
[16] = Study-1, Example 8 gel, human skin, Donor 3, 48 h
[17] = Study-2, gel saturated at 120 mg/mL, human skin, 2 h
[18] = Study-2, gel saturated at 120 mg/mL, human skin, 4 h
[19] = Study-2, gel saturated at 120 mg/mL, human skin, 8 h
[20] = Study-2, gel saturated at 120 mg/mL, human skin, 24 h
[21] = Study-2, gel saturated at 120 mg/mL, human skin, 48 h

Permeation through mouse skin compared with human skin ([1]; 48 hours, FIG. 5): approximately three times higher | Metabolism of Compound 1.002 to MTPP in human and mouse skin ([1]; both skin types): proceeded equally well | Compound 1.002 metabolized to MTPP after permeating through the human skin [2]: approximately 85% | Share of total permeated (MTPP+Compound 1.002) that was Compound 1.002 ([3]; Example 16, three formulations, 24 hour time point): about 10% | Cumulative permeation, Cmpd. 1.002 [3, 4]: 0.00 μg/cm^2 | Hydrolysis of Cmpd. 1.002 to MTPP [3, 4]: 100% | Cumulative permeation, Cmpd. 1.002 [3, 5]: 0.00 μg/cm^2 | Hydrolysis of Cmpd. 1.002 to MTPP [3, 5]: 100% | Cumulative permeation, Cmpd. 1.002 [3, 6]: 0.00 μg/cm^2 | Hydrolysis of Cmpd. 1.002 to MTPP [3, 6]: 100% | Cumulative permeation, Cmpd. 1.002 [3, 7]: 13.47 μg/cm^2 | Hydrolysis of Cmpd. 1.002 to MTPP [3, 7]: 82.9% | Cumulative permeation, Cmpd. 1.002 [3, 8]: 85.01 μg/cm^2 | Hydrolysis of Cmpd. 1.002 to MTPP [3, 8]: 58.5% | Cumulative permeation, Cmpd. 1.002 [3, 9]: 0.00 μg/cm^2 | Hydrolysis of Cmpd. 1.002 to MTPP [3, 9]: 100% | Cumulative permeation, Cmpd. 1.002 ([3]; Study-1, Example 8 gel, human skin, Donor 2, 4 h): 0.00 μg/cm^2 | Cumulative permeation, Cmpd. 1.002 [3, 10]: 1.09 μg/cm^2 | Hydrolysis of Cmpd. 1.002 to MTPP [3, 10]: 87.0% | Cumulative permeation, Cmpd. 1.002 [3, 11]: 15.44 μg/cm^2 | Hydrolysis of Cmpd. 1.002 to MTPP [3, 11]: 83.6% | Cumulative permeation, Cmpd. 1.002 [3, 12]: 82.83 μg/cm^2 | Hydrolysis of Cmpd. 1.002 to MTPP [3, 12]: 59.6% | Cumulative permeation, Cmpd. 1.002 [3, 13]: 0.00 μg/cm^2 | Hydrolysis of Cmpd. 1.002 to MTPP [3, 13]: 100% | Cumulative permeation, Cmpd. 1.002 [3, 14]: 0.00 μg/cm^2 | Hydrolysis of Cmpd. 1.002 to MTPP [3, 14]: 100% | Cumulative permeation, Cmpd. 1.002 [3, 15]: 5.18 μg/cm^2 | Hydrolysis of Cmpd. 1.002 to MTPP [3, 15]: 92.0% | Cumulative permeation, Cmpd. 1.002 [3, 16]: 70.87 μg/cm^2 | Hydrolysis of Cmpd. 1.002 to MTPP [3, 16]: 65.5% | Amount of permeated Compound 1.002 metabolized to MTPP ([3]; Study-1 and Study-2, human skin, first 24-hour period): 82%-100% | Cumulative permeation, Cmpd. 1.002 [3, 17]: 0.00 μg/cm^2 | Hydrolysis of Cmpd. 1.002 to MTPP [3, 17]: 100% | Cumulative permeation, Cmpd. 1.002 [3, 18]: 0.00 μg/cm^2 | Hydrolysis of Cmpd. 1.002 to MTPP [3, 18]: 100% | Cumulative permeation, Cmpd. 1.002 [3, 19]: 0.00 μg/cm^2 | Hydrolysis of Cmpd. 1.002 to MTPP [3, 19]: 100% | Cumulative permeation, Cmpd. 1.002 [3, 20]: 0.00 μg/cm^2 | Hydrolysis of Cmpd. 1.002 to MTPP [3, 20]: 100% | Cumulative permeation, Cmpd. 1.002 [3, 21]: 78.10 μg/cm^2 | Hydrolysis of Cmpd. 1.002 to MTPP [3, 21]: 83.9% | Permeation through human skin relative to MTPP ([3]; Study-3, saturated gel formulations, 48 hour period, FIG. 4): about 6 times
SMILES: CC(=O)Oc1cccc(-c2nc(N3CCOCC3)c3sccc3n2)c1 [Compound 1.002, 3-(4-Morpholinothieno[3,2-d]pyrimidin-2-yl)phenyl Acetate]
Effect of oleic acid amount on flux through human skin ([3]; Example 15, gels with 1%, 2%, 5% and 10% oleic acid, FIG. 13): increases as the increase of the amount of oleic acid | Metabolism of Compound 1.002 to MTPP ([3]; Example 15, gels with 1%, 2%, 5% and 10% oleic acid, human skin): Majority of Compound 1.002 metabolized to MTPP
